Laboratory results taken from US20230040386A1, “URSODEOXYCHOLIC ACID-CONTAINING AGENT FOR TREATING OR PREVENTING PRESBYOPIA” (priority 2018, published 2023).

Legend:
[1] = system: lens; assay: Pharmacological Test 3: lens elasticity after instillation of ursodeoxycholic acid (free form); assay type: in vivo, C57BL/6J mice; details: 2.5 μL/eye, 3 times per day, 12 to 15 days, vs vehicle control
Experimental: A vehicle comprising 0.1% (w/v) of ethyl pyruvate, 0.269% (w/v) of sodium dihydrogenphosphate monohydrate (NaH2PO4H2O), 0.433% (w/v) of disodium hydrogenphosphate (Na2HPO4), 0.2% (w/v) of hydroxypropyl methylcellulose, and 0.5% (w/v) of NaCl was prepared. Ursodeoxycholic acid was sonicated with the addition of the vehicle to prepare a 1.5% (w/v) suspension. The resulting 1.5% (w/v) suspension was diluted with the vehicle to prepare a 0.5% (w/v) suspension. Further, the resulting 0.5% (w/v) suspension was diluted with the vehicle to prepare a 0.15% (w/v) suspension. The total amount of each sample to be used in one day was prepared before use. EV06 was sonicated with the addition of the vehicle to prepare a 1.5% (w/v) solution. The total amount of the sample to be used in one day was prepared before use. 1) Each test sample (2.5 μL/eye) was instilled into the right eye of 8-month-old C57BL/6J mice with a Pipetman 3 times per day (around 9:00, 13:00 and 17:00) for 12 to 15 days. 2) After the final instillation, the mice were euthanized by carbon dioxide inhalation, and then the eyeballs were extracted and rinsed with Hank's balanced salt solution (HBSS). 3) The sclera near the optic nerve was cut with a razor, the lens was removed through the incision, and the removed lens was immersed in HBSS. 4) The lens was placed on a glass slide, and an all-in-one fluorescence microscope BZ-9000 (Keyence) was used to capture an image of the lens (Image a). 5) Next, one cover glass (Corning^(registered trade mark) 22×22 mm Square) was placed on the lens, and an image in which the thickness of the lens changed due to the weight was similarly captured (image b). 6) A change in the lens diameter was calculated from Equation 1 wherein the lens diameter of Image a is subtracted from the lens diameter of Image b, as described below. Then, the lens elasticity improvement of each sample group compared with the vehicle control group was calculated from Equation 2 described below. The mean of the vehicle control group was based on 5 eyes, the mean of each ursodeoxycholic acid sample group was based on 10 eyes, and the mean of the EV06 sample group was based on 10 eyes. Change in lens diameter=Lens diameter in Image b of each test sample−Lens diameter in Image a of each test sample (Equation 1) Lens elasticity improvement of each sample group=Mean change in lens diameter of each Test sample group−Mean change in lens diameter of Vehicle control group (Equation 2)

[2] = system: lens; assay: Pharmacological Test 4: lens elasticity, once-daily instillation of ursodeoxycholic acid for 2 weeks; assay type: in vivo, C57BL/6J mice; details: 14 days; for Lens elasticity improvement: vs vehicle control; for Lens elasticity improvement, in words: instilled once-daily, 1% and 3% ursodeoxycholic acid samples, 1.5% EV06 sample
Experimental: A vehicle comprising 0.1% (w/v) of ethyl pyruvate, 0.269% (w/v) of sodium dihydrogenphosphate monohydrate (NaH2PO4H2O), 0.433% (w/v) of disodium hydrogenphosphate (Na2HPO4), 0.2% (w/v) of hydroxypropyl methylcellulose, 0.5% (w/v) of NaCl was prepared. Ursodeoxycholic acid was sonicated with the addition of the vehicle to prepare a 3.0% (w/v) suspension. The resulting 3.0% (w/v) suspension was diluted with the vehicle to prepare a 1.0% (w/v) suspension. Further, the resulting 1.0% (w/v) suspension was diluted with the vehicle to prepare a 0.3% (w/v) suspension. The total amount of each sample to be used in one day was prepared before use. EV06 was sonicated with the addition of the vehicle to prepare a 1.5% (w/v) solution. The total amount of the sample to be used in one day was prepared before use. 1) Each test sample (2.5 μL/eye) was instilled into the right eye of 8-month-old C57BL/6J mice with a Pipetman once per day (QD; around 9:00), twice per day (BID; around 9:00 and 17:00), or 3 times per day (TID; around 9:00, 13:00 and 17:00) for 14 days. 2) After the final instillation, the mice were euthanized by carbon dioxide inhalation, and then the eyeballs were extracted and rinsed with Hank's balanced salt solution (HBSS). 3) The sclera near the optic nerve was cut with a razor, the lens was removed through the incision, and the removed lens was immersed in HBSS. 4) The lens was placed on a glass slide, and an all-in-one fluorescence microscope BZ-9000 ([…]) was used to capture an image of the lens (image a). 5) Next, one cover glass (Corning^(registered trade mark) 22×22 mm Square) was placed on the lens, and an image in which the thickness of the lens changed due to the weight was similarly captured (Image b). 6) A change in the lens diameter was calculated from Equation 1 wherein the lens diameter of Image a is subtracted from the lens diameter of Image b, as described below. Then, the lens elasticity improvement of each sample group compared with the vehicle control group was calculated from Equation 2 described below. The mean of the vehicle control group was based on 5 eyes, the mean of each ursodeoxycholic acid sample group was based on 10 eyes, and the mean of each EV06 sample group was based on 10 eyes. Change in lens diameter=Lens diameter in Image b of each test sample-Lens diameter in Image a of each test sample (Equation 1) Lens elasticity improvement of each sample group=Mean change in lens diameter of each Test sample group-Mean change in lens diameter of Vehicle control group (Equation 2)

Question: With `C[C@H](CCC(=O)O)[C@H]1CC[C@H]2[C@@H]3[C@@H](O)C[C@@H]4C[C@H](O)CC[C@]4(C)[C@H]3CC[C@]12C` [ursodeoxycholic acid, 3α,7β-Dihydroxy-5β-cholan-24-oic acid] as the molecule, how does the Lens elasticity improvement ([1]; 0.15% (w/v) sample) read?
Answer: 31.8 μm

Question: And the Lens elasticity improvement ([1]; 0.5% (w/v) sample)?
Answer: 39.4 μm

Question: What about the Lens elasticity improvement ([1]; 1.5% (w/v) sample) of the same molecule?
Answer: 59.9 μm

Question: What about the Lens elasticity improvement ([2]; 0.3% (w/v) sample, QD) of the same molecule?
Answer: 2.8 μm

Question: And the Lens elasticity improvement ([2]; 1% (w/v) sample, QD)?
Answer: 28.1 μm

Question: And the Lens elasticity improvement ([2]; 3% (w/v) sample, QD)?
Answer: 30.4 μm

Question: What about the “Lens elasticity improvement, in words” value [2] of the same molecule?
Answer: potent lens elasticity improvement

Question: How did the Lens elasticity improvement ([1]; 1.5% (w/v) sample) turn out when `C[N+](C)(C)CCOC(=O)CCCC[C@@H]1CCSS1` [EV06, lipoic acid choline ester] was run?
Answer: 42.5 μm

Question: And the Lens elasticity improvement ([2]; 1.5% (w/v) sample, BID)?
Answer: 15.7 μm

Question: And the Lens elasticity improvement ([2]; 1.5% (w/v) sample, QD)?
Answer: −3.6 μm

Question: What about the Lens elasticity improvement ([2]; 1.5% (w/v) sample, TID) of the same molecule?
Answer: 29.5 μm

Question: And the “Lens elasticity improvement, in words” value [2]?
Answer: no effect
